Values quoted from earlier work, collected in publication doi:10.1101/2025.09.24.678446, “Exploiting Peptide Chirality and Transport to Dissect the Complex Mechanism of Action of Host Peptides on Bacteria” (bioRxiv, 2025).

Tested on: BacA

For bleomycin, the “transport by BacA” value is listed as “BacA has previously been shown to transport many varieties of peptides, including bleomycin”.
